Test results reported in US10196411B2, “Tizoxanide phosphate and alkane sulfonate and pharmaceutical applications thereof” (priority 2014, dated 2019).
Converted amounts (≈) assume the structure as drawn. Where a name gives a salt, the structure may show the parent alone.

Columns and labels:
[1] = in words
[2] = Pharmacokinetic evaluation of oral administration and intravenous injection in rats; format: in vivo, SD rats; conditions: male, SD, rat, in vivo, po, 12.5 mg/kg
Procedure: 9 SD rats (SPF grade, male, 200±10 g), provided by Laboratory Animal Center of the Academy of Military Medical Sciences, were grouped randomly, 3 […] for each group.
[…]; The plasma was separated and stored in a −20° C. refrigerator for further detection.
(2) Oral administration group of Compound 3, a dose of 15 mg/kg (equivalent to a dose of 41 μmol/kg tizoxanide); […]; The plasma was separated and stored in a −20° C. refrigerator for further detection.
(3) Oral administration group of nitazoxanide: a dose of 12.5 mg/kg (equivalent to a dose of 41 μmol/kg tizoxanide); administration volume: 2 mL/200 g rat (preparation of a test solution: 10.96 mg nitazoxanide was weighed accurately and dissolved by adding 600 μL DMSO, and […] sterile water was added to prepare a clear solution at 1.25 mg/mL); after oral administration of nitazoxanide at 12.5 mg/kg in rats, blood was taken before administration and at 0.08, 0.25, 0.5, 1, 2, 4, 6, 8, 12 and 24 h after administration. The plasma was separated and stored in a −20° C. refrigerator for further detection.
Treatment of plasma sample: 100 μL plasma was taken, 300 μL acetonitrile solution containing internal standard (500 nmol/L a solution of tolbutamide in acetonitrile) was added, and then mixed well. The mixture was vortexed for 1 min, and centrifuged at 4° C. for 10 min (at a relative centrifugal force (RCF) of 14000 g). The supernatant was taken, and 20 μL was drawn for LC/MS/MS analysis, so as to detect the blood concentration of tizoxanide and the prototype drug.

PR8 influenza virus = PR8 influenza virus in MDCK cells; cited from earlier work
[3] = in vivo, cited from earlier work
Helicobacter pylori = conditions: 103 strains of Helicobacter pylori; cited from earlier work
[4] = system: Mycobacterium tuberculosis; conditions: cited from earlier work

Structure (SMILES) | solubility compared to nitazoxanide [1] | Vz/F [2] [L/kg] | EC50 (PR8 influenza virus) [µg/mL] | EC90 (PR8 influenza virus) [µg/mL] | detection of nitazoxanide in plasma, urine, bile and feces ([3]; po) | fraction of the oral dose excreted by feces [3] | fraction of the oral dose excreted by urine [3] | 50% minimal inhibitory concentration (MIC50) (Helicobacter pylori) [µg/mL] | 90% minimal inhibitory concentration (MIC90) (Helicobacter pylori) [µg/mL] | minimal inhibitory concentration (MIC), median value [4] [µg/mL]
O=C(Nc1ncc([N+](=O)[O-])s1)c1ccccc1OP(=O)(O)O [Compound 5, 2-(5-nitrothiazol-2-yl-carbamoyl)phenyl phosphate calcium salt] | much better | – | – | – | – | – | – | – | – | –
CC(=O)Oc1ccccc1C(=O)Nc1ncc([N+](=O)[O-])s1 [nitazoxanide, 2-acetoxy-N-(5-nitro-2-thiazolyl)benzamide] | – | 32.67 ± 16.81 | 1 (≈ 3.25 µM) | 7 (≈ 22.8 µM) | not detectable | about ⅔ | about ⅓ | 1 | 4 | 16 (≈ 52.1 µM)
